Read-outs that look alike come from different tables or passages of the source.
How the values were obtained:
Assay type in all cases: cell-based
BaF3_EGFRWT cells = BaF3_EGFRWT cells (Homo sapiens, UniProt P00533); assay: Cell growth inhibition assay (CellTiterGlo), BaF3_EGFRWT
BaF3_HER2YVMA cells = BaF3_HER2YVMA cells (Homo sapiens, UniProt P04626, DUP772-775, cells depend on it); assay: Cell growth inhibition assay (CellTiterGlo), BaF3_HER2YVMA
BaF3_HER2WT cells = BaF3_HER2WT cells (Homo sapiens, UniProt P04626); assay: Cell growth inhibition assay (CellTiterGlo), BaF3_HER2WT
[1] = cell growth inhibition, 80 ng/mL EGF, 3 days treatment, read-out: EGFR WT IC50
[2] = cell growth inhibition, 3 days treatment, read-out: HER2 - YVMA IC50
[3] = cell growth inhibition, 3 days treatment, read-out: HER2 WT IC50
[4] = 3-day treatment, CellTiterGlo, read-out: Cell growth inhibition activity, EGFR WT
[5] = 3-day treatment, CellTiterGlo, read-out: Cell growth inhibition activity, HER2 - YVMA
[6] = 3-day treatment, CellTiterGlo, read-out: Cell growth inhibition activity, HER2 WT

Chain of BaF3_EGFRWT cells (P00533 whole entry, change not shown): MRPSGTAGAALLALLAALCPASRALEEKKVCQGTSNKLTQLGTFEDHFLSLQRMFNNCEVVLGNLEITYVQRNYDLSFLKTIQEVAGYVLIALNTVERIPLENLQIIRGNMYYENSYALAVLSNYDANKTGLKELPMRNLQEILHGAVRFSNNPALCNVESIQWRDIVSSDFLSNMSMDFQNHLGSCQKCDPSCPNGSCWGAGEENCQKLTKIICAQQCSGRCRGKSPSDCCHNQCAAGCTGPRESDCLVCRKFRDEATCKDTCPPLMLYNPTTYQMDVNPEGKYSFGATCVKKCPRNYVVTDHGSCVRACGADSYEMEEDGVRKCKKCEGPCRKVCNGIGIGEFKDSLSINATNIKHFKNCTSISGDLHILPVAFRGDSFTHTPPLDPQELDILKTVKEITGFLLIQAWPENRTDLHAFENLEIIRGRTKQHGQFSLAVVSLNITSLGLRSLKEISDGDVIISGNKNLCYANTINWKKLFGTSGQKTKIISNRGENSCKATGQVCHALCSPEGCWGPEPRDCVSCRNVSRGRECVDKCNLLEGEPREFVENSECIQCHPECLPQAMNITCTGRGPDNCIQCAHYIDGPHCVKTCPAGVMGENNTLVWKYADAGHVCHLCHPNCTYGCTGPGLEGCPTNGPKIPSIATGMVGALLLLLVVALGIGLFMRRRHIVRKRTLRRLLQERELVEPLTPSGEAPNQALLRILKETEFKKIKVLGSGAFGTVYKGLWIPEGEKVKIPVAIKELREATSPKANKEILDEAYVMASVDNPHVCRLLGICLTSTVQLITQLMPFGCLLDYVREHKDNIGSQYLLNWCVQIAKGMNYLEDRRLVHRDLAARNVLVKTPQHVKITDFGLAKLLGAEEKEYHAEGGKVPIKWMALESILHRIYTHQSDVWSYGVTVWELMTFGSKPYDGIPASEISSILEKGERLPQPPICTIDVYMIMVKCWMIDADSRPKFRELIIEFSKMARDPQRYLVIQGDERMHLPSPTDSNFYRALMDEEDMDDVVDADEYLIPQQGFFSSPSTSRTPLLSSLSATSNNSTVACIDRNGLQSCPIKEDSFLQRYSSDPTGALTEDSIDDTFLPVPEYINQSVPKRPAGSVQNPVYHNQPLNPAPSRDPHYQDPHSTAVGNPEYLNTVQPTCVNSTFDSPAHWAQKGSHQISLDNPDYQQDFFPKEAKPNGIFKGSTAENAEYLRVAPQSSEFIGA
Chain of BaF3_HER2YVMA cells (P04626 with tags, fused parts or gaps DUP772-775): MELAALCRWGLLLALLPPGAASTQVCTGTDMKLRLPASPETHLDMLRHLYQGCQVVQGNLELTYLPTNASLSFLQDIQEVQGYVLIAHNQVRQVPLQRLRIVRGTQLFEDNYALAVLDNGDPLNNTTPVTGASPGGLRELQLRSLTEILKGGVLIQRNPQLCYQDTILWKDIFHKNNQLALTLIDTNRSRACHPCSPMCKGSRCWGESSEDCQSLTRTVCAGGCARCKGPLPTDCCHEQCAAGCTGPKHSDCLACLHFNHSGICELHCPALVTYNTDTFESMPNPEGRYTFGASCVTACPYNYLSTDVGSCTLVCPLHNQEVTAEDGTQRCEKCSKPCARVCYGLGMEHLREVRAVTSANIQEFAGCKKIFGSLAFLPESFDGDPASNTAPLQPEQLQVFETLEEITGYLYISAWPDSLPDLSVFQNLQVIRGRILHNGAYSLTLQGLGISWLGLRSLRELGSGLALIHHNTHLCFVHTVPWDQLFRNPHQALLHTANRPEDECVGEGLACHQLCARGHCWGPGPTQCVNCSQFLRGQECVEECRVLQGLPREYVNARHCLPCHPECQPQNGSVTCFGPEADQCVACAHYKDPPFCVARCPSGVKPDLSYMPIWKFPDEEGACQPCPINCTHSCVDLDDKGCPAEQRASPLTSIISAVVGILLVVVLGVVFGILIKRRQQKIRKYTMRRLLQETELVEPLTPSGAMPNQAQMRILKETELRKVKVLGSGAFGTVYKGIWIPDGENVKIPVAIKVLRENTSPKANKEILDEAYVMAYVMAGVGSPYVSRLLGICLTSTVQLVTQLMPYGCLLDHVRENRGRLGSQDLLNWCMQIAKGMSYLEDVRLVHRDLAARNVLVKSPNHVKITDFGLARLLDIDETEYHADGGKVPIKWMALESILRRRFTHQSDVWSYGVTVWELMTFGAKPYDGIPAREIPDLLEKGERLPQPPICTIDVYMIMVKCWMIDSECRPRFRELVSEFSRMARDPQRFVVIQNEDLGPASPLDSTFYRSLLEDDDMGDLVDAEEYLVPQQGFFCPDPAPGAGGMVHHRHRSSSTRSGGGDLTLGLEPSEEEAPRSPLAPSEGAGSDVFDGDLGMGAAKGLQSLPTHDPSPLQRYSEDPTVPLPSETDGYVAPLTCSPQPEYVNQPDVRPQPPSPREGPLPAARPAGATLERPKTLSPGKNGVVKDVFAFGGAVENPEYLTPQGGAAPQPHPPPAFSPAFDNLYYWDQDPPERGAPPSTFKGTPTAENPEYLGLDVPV
Chain of BaF3_HER2WT cells (P04626 whole entry, change not shown): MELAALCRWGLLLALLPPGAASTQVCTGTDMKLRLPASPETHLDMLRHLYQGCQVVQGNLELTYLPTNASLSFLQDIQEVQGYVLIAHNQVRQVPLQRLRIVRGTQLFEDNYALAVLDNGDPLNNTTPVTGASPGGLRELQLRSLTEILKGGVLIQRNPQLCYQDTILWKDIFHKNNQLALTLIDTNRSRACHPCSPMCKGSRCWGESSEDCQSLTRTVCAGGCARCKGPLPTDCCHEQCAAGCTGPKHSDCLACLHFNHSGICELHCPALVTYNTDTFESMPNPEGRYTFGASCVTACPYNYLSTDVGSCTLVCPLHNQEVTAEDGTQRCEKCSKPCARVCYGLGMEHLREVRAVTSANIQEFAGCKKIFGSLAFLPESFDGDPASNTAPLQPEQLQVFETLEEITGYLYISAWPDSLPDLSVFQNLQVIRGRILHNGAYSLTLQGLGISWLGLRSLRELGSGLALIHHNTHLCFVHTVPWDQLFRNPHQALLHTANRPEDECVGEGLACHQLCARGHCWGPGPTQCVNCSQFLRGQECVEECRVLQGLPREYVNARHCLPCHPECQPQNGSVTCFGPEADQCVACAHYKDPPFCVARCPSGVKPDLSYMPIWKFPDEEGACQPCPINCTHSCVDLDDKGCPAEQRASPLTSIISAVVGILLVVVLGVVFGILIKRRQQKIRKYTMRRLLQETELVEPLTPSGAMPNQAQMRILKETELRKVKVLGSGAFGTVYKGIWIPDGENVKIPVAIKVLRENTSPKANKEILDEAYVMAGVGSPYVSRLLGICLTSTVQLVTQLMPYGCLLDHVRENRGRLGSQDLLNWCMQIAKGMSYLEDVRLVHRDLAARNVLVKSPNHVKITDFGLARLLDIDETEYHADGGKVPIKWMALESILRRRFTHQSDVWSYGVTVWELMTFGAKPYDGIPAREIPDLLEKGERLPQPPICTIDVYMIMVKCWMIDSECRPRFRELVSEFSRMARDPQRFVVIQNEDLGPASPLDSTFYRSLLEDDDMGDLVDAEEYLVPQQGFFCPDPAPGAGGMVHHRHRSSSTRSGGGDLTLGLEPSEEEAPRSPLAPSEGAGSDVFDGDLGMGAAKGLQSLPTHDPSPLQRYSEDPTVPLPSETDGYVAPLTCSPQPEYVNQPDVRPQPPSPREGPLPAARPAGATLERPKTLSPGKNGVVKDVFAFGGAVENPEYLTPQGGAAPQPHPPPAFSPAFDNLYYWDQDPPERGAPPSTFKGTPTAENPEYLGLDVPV

Row | Compound | GI50 (BaF3_EGFRWT cells; [1]) [nM] | GI50 (BaF3_HER2YVMA cells; [2]) [nM] | GI50 (BaF3_HER2WT cells; [3]) [nM] | GI50 (BaF3_EGFRWT cells; [4]) [nM] | GI50 (BaF3_HER2YVMA cells; [5]) [nM] | GI50 (BaF3_HER2WT cells; [6]) [nM]
1 | Cc1cc(Nc2ncnn3ccc(C4CCCN(C(=O)C(F)Cl)CC4)c23)ccc1Oc1ccn2ncnc2c1 (single isomer, unassigned) [Examples 145, 146, 147 and 148, second eluting isomer, 1-(4-(4-((4-([1,2,4]triazolo[1,5-a]pyridin-7-yloxy)-3-methylphenyl)amino)pyrrolo[2,1-f][1,2,4]triazin-5-yl)azepan-1-yl)-2-chloro-2-fluoroethan-1-one] | 500 to 1500 | < 200 | < 200 | – | – | –
2 | Cc1cc(Nc2ncnn3ccc(C4CCCN(C(=O)C(F)Cl)CC4)c23)ccc1Oc1ccn2ncnc2c1 (single isomer, unassigned) [Examples 145, 146, 147 and 148, third eluting isomer, 1-(4-(4-((4-([1,2,4]triazolo[1,5-a]pyridin-7-yloxy)-3-methylphenyl)amino)pyrrolo[2,1-f][1,2,4]triazin-5-yl)azepan-1-yl)-2-chloro-2-fluoroethan-1-one] | 1500 to 5000 | 500 to 1500 | 200 to 500 | – | – | –
3 | Cc1cc(Nc2ncnn3ccc(C4CN(C(=O)/C=C/C5CCCN5C)C4)c23)ccc1Oc1ccn2ncnc2c1 (single isomer, unassigned) [Examples 171 and 172, second eluting isomer, (E)-1-(3-(4-((4-([1,2,4]triazolo[1,5-a]pyridin-7-yloxy)-3-methylphenyl)amino)pyrrolo[2,1-f][1,2,4]triazin-5-yl)azetidin-1-yl)-3-(1-methylpyrrolidin-2-yl)prop-2-en-1-one] | 1500 to 5000 | < 200 | < 200 | – | – | –
4 | Cc1cc(Nc2ncnn3ccc(C4CCN(C(=O)[C@H](F)Cl)CC4)c23)ccc1Oc1ccn2ncnc2c1 (single isomer, unassigned) [Examples 173 and 174, first eluting isomer] | 1500 to 5000 | 1500 to 5000 | 200 to 500 | – | – | –
5 | Cc1cc(Nc2ncnn3ccc(C4CC5CCC4CN5C(=O)/C=C/CN(C)C)c23)ccc1Oc1ccn2ncnc2c1 (single isomer, unassigned; first eluting) [Examples 137 and 138, first eluting isomer] | 1500 to 5000 | 200 to 500 | < 200 | – | – | –
6 | Cc1cc(Nc2ncnn3ccc(C4CCN(C(=O)[C@@H](F)Cl)CC4)c23)ccc1Oc1ccn2ncnc2c1 (single isomer, unassigned; second eluting) [Examples 173 and 174, second eluting isomer, (5)-1-(4-(4-((4-([1,2,4]triazolo[1,5-a]pyridin-7-yloxy)-3-methylphenyl)amino)pyrrolo[2,1-f][1,2,4]triazin-5-yl)piperidin-1-yl)-2-chloro-2-fluoroethan-1-one] | 1500 to 5000 | < 200 | < 200 | – | – | –
7 | C=CC(=O)N1CC(c2ccn3ncnc(Nc4ccc(Oc5ccn6ncnc6c5)c(C)c4)c23)C1 [Example 3, 1-(3-(4-((4-([1,2,4]triazolo[1,5-a]pyridin-7-yloxy)-3-methylphenyl)amino)pyrrolo[2,1-f][1,2,4]triazin-5-yl)azetidin-1-yl)prop-2-en-1-one] | – | – | – | 500 to 1500 | < 200 | < 200
8 | C=CC(=O)N1CCCC(c2ccn3ncnc(Nc4ccc(Oc5ccn6ncnc6c5)c(C)c4)c23)CC1 (stereo not drawn) [Example 9, 1-(4-(4-((4-([1,2,4]triazolo[1,5-a]pyridin-7-yloxy)-3-methylphenyl)amino)pyrrolo[2,1-f][1,2,4]triazin-5-yl)azepan-1-yl)prop-2-en-1-one] | – | – | – | 200 to 500 | < 200 | < 200
9 | C=CC(=O)N1CC2(C1)CN(c1ccn3ncnc(Nc4cnc(Oc5ccn6ncnc6c5)c(Cl)c4)c13)C2 [Example 15, 1-(6-(4-((6-([1,2,4]triazolo[1,5-a]pyridin-7-yloxy)-5-chloropyridin-3-yl)amino)pyrrolo[2,1-f][1,2,4]triazin-5-yl)-2,6-diazaspiro[3.3]heptan-2-yl)prop-2-en-1-one] | – | – | – | 1500 to 5000 | > 5000 | 1500 to 5000
